Test results: patent publication US10710980B2, “Aminopyridine derivatives and their use as selective ALK-2 inhibitors” (priority 2016, dated 2020)

Assays:
ALK1 (aa166-493) = ALK1 (aa166-493) (Homo sapiens (Human), UniProt P37023); assay: Caliper biochemical peptide phosphorylation assay, ALK1; conditions: 15 μm ATP, 60 min at 30° C.; read-out: ALK1 EPK (IC50)
ALK3 (aa198-525) = ALK3 (aa198-525) (Homo sapiens (Human), UniProt P36894); assay: ADPGlo biochemical autophosphorylation assay, ALK3; conditions: 15 μm ATP, 60 min at 32° C.
[1] = test system: BMP response element (BRE) luciferase reporter in HuH7 cells, BMP6 stimulated; assay: BMP signaling reporter gene assay; assay type: cell-based; conditions: Homo sapiens, Huh-7; HuH7 BRE-luciferase, BMP6 100 ng/ml, 5 hours; read-out: MSD BMP RGA IC50
ALK6 (aa168-495) = ALK6 (aa168-495) (Homo sapiens (Human), UniProt O00238); assay: Caliper biochemical peptide phosphorylation assay, ALK6; conditions: 15 μm ATP, 60 min at 30° C.; read-out: ALK6 EPK (IC50)
[2] = target: T1, wild-type ALK2 (aa172-499) (Homo sapiens (Human), UniProt Q04771); assay: ADPGlo biochemical autophosphorylation assay, ALK2; conditions: 15 μm ATP, 60 min at 32° C.
ALK5 (aa162-503) = ALK5 (aa162-503) (Homo sapiens (Human), UniProt P36897); assay: Caliper biochemical peptide phosphorylation assay, ALK5; conditions: 15 μm ATP, 60 min at 30° C.; read-out: ALK5 EPK (IC50)
[3] = target: T1, wild-type ALK2 (aa172-499); assay: Caliper biochemical peptide phosphorylation assay, ALK2; conditions: 15 μm ATP, 60 min at 30° C.; read-out: ALK2 EPK (IC50)

ALK1 (aa166-493), sequence (P37023 166-493): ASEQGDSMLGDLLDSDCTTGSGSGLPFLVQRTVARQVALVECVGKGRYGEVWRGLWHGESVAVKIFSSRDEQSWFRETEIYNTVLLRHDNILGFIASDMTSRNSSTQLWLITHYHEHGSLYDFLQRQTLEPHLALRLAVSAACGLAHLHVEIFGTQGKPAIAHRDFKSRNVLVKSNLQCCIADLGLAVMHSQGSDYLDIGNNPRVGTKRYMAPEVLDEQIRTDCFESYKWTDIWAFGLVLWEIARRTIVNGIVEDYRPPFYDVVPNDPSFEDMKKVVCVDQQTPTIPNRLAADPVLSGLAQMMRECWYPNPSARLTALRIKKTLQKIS
ALK5 (aa162-503), sequence (P36897 162-503): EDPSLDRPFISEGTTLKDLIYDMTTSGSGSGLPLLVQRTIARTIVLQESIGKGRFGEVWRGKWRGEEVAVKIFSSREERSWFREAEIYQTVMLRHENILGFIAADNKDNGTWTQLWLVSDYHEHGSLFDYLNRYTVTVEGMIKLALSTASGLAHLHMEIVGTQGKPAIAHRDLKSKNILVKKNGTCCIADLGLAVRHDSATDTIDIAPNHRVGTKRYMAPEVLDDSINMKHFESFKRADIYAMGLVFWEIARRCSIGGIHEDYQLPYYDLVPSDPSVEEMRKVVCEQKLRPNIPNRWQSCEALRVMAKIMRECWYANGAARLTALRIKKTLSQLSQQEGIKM
T1 sequence (Q04771 172-499): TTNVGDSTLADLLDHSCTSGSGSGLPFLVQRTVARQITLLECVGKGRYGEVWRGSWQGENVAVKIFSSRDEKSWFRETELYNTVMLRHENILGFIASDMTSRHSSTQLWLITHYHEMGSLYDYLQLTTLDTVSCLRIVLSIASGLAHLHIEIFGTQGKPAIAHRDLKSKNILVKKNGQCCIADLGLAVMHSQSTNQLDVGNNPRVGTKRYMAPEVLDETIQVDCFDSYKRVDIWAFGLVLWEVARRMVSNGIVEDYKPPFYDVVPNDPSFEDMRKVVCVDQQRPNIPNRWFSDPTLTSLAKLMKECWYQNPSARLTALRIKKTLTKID
ALK6 (aa168-495), sequence (O00238 168-495): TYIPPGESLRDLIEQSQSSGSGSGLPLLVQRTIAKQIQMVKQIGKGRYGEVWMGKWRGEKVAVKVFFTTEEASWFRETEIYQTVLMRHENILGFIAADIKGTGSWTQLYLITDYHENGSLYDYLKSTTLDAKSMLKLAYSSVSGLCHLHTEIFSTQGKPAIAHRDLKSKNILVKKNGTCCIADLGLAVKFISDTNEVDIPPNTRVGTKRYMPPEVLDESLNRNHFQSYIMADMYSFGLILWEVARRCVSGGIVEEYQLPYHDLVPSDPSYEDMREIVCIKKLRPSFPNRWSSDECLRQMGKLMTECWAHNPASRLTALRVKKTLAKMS
ALK3 (aa198-525), sequence (P36894 198-525): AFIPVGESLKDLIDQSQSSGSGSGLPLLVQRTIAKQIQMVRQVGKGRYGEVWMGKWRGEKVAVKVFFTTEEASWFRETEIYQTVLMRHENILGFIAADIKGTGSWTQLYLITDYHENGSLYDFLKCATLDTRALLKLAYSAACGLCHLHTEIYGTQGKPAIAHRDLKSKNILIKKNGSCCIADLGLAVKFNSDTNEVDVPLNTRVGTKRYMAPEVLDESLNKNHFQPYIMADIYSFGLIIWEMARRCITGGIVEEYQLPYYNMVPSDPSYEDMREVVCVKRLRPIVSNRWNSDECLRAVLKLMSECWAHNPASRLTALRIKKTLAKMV

| Structure (SMILES) | IC50 (ALK1 (aa166-493)) [nM] | IC50 (ALK3 (aa198-525)) [nM] | IC50 [1] [nM] | IC50 (ALK6 (aa168-495)) [nM] | IC50 [2] [nM] | IC50 (ALK5 (aa162-503)) [nM] | IC50 [3] [nM] |
| --- | --- | --- | --- | --- | --- | --- | --- |
| Nc1ncc(-c2ccc(N3CCCCC3)cc2)cc1C(=O)NC1CCCCC1 [Example 61, 2-amino-N-cyclohexyl-5-(4-(piperidin-1-yl)phenyl)nicotinamide] | 940 | 2100 | 2300 | 20200 | 43 | 7200 | 35 |
| Cc1cc(CN2CCC[C@H]2C)ccc1-c1cnc(N)c(C(=O)N[C@H]2CC[C@](C)(O)CC2)c1 [Example 87, 2-amino-N-((1r,4R)-4-hydroxy-4-methylcyclohexyl)-5-(2-methyl-4-(((R)-2-methylpyrrolidin-1-yl)methyl)phenyl)nicotinamide] | 10000 | 15100 | 3550 | 10000 | 880 | 10000 | 630 |
| Nc1ncc(-c2ccc([C@@]34C[C@@H]3CN(CCC(F)(F)F)C4)cc2)cc1C(=O)N[C@H]1CC[C@H](O)CC1 [Example 47, 2-amino-N-((1r,4R)-4-hydroxycyclohexyl)-5-(4-((1R,5S)-3-(3,3,3-trifluoropropyl)-3-azabicyclo[3.1.0]hexan-1-yl)phenyl)nicotinamide] | 290 | 1300 | 130 | 3500 | 21 | 4700 | 25 |
| CC#CCN1C[C@@H]2C[C@]2(c2ccc(-c3cnc(N)c(C(=O)N[C@H]4CC[C@H](O)CC4)c3)cc2)C1 [Example 37, 2-amino-5-(4-((1S,5R)-3-(but-2-yn-1-yl)-3-azabicyclo[3.1.0]hexan-1-yl)phenyl)-N-((1r,4S)-4-hydroxycyclohexyl)nicotinamide] | 100 | 960 | 37 | 1700 | 8 | 1100 | 27 |
| Nc1ncc(-c2ccc([C@@]34C[C@@H]3CN(CCF)C4)cc2)cc1C(=O)N[C@H]1CC[C@H](O)CC1 [Example 48, 2-amino-5-(4-((1R,5S)-3-(2-fluoroethyl)-3-azabicyclo[3.1.0]hexan-1-yl)phenyl)-N-((1r,4R)-4-hydroxycyclohexyl)nicotinamide] | 120 | 970 | 360 | 4400 | 8 | 5300 | 34 |
| CC(C)N1C[C@H]2C[C@@]2(c2ccc(-c3cnc(N)c(C(=O)N[C@H]4CC[C@](C)(O)CC4)c3)cc2)C1 [Example 24, 2-amino-N-((1r,4R)-4-hydroxy-4-methylcyclohexyl)-5-(4-((1R,5S)-3-isopropyl-3-azabicyclo[3.1.0]hexan-1-yl)phenyl)nicotinamide] | 543 | 6480 | 81 | 7300 | 11 | 6800 | 16 |
| Nc1ncc(-c2ccc([C@@]34C[C@@H]3CN(C3CCOCC3)C4)cc2)cc1C(=O)NC12CCC(O)(CC1)CC2 [Example 34, 2-amino-N-(4-hydroxybicyclo[2.2.2]octan-1-yl)-5-(4-((1R,5S)-3-(tetrahydro-2H-pyran-4-yl)-3-azabicyclo[3.1.0]hexan-1-yl)phenyl)nicotinamide] | 323 | 914 | 49 | 3300 | 18 | 6280 | 23 |
| Nc1ncc(-c2cccc(C(=O)N3CCN(CCO)CC3)c2)cc1C(=O)NC1CCCCC1 [Example 88, 2-amino-N-cyclohexyl-5-(3-(4-(2-hydroxyethyl)piperazine-1-carbonyl)phenyl)nicotinamide] | 20200 | 22800 | 9300 | 20200 | 990 | 20200 | 810 |
| C[C@@H]1CCCN1Cc1ccc(-c2cnc(N)c(C(=O)N[C@H]3CC[C@](C)(O)CC3)c2)c(Cl)c1 [Example 81, 2-amino-5-(2-chloro-4-(((R)-2-methylpyrrolidin-1-yl)methyl)phenyl)-N-((1r,4R)-4-hydroxy-4-methylcyclohexyl)nicotinamide] | 3000 | 15100 | 1250 | 10000 | 150 | 10000 | 110 |
| [2H][C@]1(O)CC[C@H](NC(=O)c2cc(-c3ccc([C@]45C[C@H]4CN(C(C)C)C5)cc3)cnc2N)CC1 [Example 78, 2-amino-N-((1r,4S)-4-hydroxycyclohexyl-4-d)-5-(4-((1S,5R)-3-isopropyl-3-azabicyclo[3.1.0]hexan-1-yl)phenyl)nicotinamide] | 310 | 8300 | 220 | 10000 | 37 | 7800 | 109 |
| C[C@@H]1CCCN1Cc1ccc(-c2cnc(N)c(C(=O)N[C@H]3CC[C@H](O)CC3)c2)cc1 [Example 31, 2-amino-N-((1r,4R)-4-hydroxycyclohexyl)-5-(4-(((R)-2-methylpyrrolidin-1-yl)methyl)phenyl)nicotinamide] | 230 | 1200 | 115 | 4500 | 13 | 3500 | 20 |
| Nc1ncc(-c2ccc([C@]34C[C@H]3CN(CCN3CCOCC3)C4)cc2)cc1C(=O)N[C@H]1CC[C@H](O)CC1 [Example 13, 2-amino-N-((1r,4S)-4-hydroxycyclohexyl)-5-(4-((1S,5R)-3-(2-morpholinoethyl)-3-azabicyclo[3.1.0]hexan-1-yl)phenyl)nicotinamide] | 140 | 1400 | 78 | 3000 | 8 | 3100 | 13 |
| COCCN1C[C@@H]2C[C@]2(c2ccc(-c3cnc(N)c(C(=O)NC45CCC(O)(CC4)CC5)c3)cc2)C1 [Example 7, 2-amino-N-(4-hydroxybicyclo[2.2.2]octan-1-yl)-5-(4-((1S,5R)-3-(2-methoxyethyl)-3-azabicyclo[3.1.0]hexan-1-yl)phenyl)nicotinamide] | 195 | 875 | 51 | 2400 | 12 | 5450 | 12 |
| CC(C)N1C[C@@H]2C[C@]2(c2ccc(-c3cnc(N)c(C(=O)N[C@H]4CC[C@](C)(O)CC4)c3)cc2)C1 [Example 32, 2-amino-N-((1r,4S)-4-hydroxy-4-methylcyclohexyl)-5-(4-((1S,5R)-3-isopropyl-3-azabicyclo[3.1.0]hexan-1-yl)phenyl)nicotinamide] | 743 | 12700 | 93 | 3300 | 22 | 3200 | 20 |
| CN1CCN(C(=O)c2ccc(-c3cnc(N)c(C(=O)NC4CCCCC4)c3)cc2)CC1 [Example 45, 2-amino-N-cyclohexyl-5-(4-(4-methylpiperazine-1-carbonyl)phenyl)nicotinamide] | 750 | 1600 | 365 | 4800 | 20 | 2700 | 25 |
| Nc1ncc(-c2ccc([C@@]34C[C@@H]3CN(C3CCOCC3)C4)cc2)cc1C(=O)NC12CC(CO)(C1)C2 [Example 30, 2-amino-N-(3-(hydroxymethyl)bicyclo[1.1.1]pentan-1-yl)-5-(4-((1R,5S)-3-(tetrahydro-2H-pyran-4-yl)-3-azabicyclo[3.1.0]hexan-1-yl)phenyl)nicotinamide] | 210 | 500 | 68 | 2800 | 7 | 4000 | 22 |
| Nc1ncc(-c2ccc([C@@]34C[C@@H]3CN(C3CCC(F)(F)CC3)C4)cc2)cc1C(=O)NC12CCC(O)(CC1)CC2 [Example 80, 2-amino-5-(4-((1R,5S)-3-(4,4-difluorocyclohexyl)-3-azabicyclo[3.1.0]hexan-1-yl)phenyl)-N-(4-hydroxybicyclo[2.2.2]octan-1-yl)nicotinamide] | 680 | 1800 | 58 | 4600 | 58 | 6600 | 87 |
| C[C@@H]1CCCN1Cc1ccc(-c2cnc(N)c(C(=O)N[C@H]3CC[C@](C)(O)CC3)c2)cc1F [Example 46, 2-amino-5-(3-fluoro-4-(((R)-2-methylpyrrolidin-1-yl)methyl)phenyl)-N-((1r,4R)-4-hydroxy-4-methylcyclohexyl)nicotinamide] | – | 14600 | – | 10000 | 24 | 10000 | 25 |
| Nc1ncc(-c2ccc([C@@]34C[C@@H]3CN(C3CCOCC3)C4)cc2)cc1C(=O)N[C@H]1CC[C@@H](O)CC1 [Example 22, 2-amino-N-((1s,4S)-4-hydroxycyclohexyl)-5-(4-((1R,5S)-3-(tetrahydro-2H-pyran-4-yl)-3-azabicyclo[3.1.0]hexan-1-yl)phenyl)nicotinamide] | 250 | – | 41 | 3200 | 9 | – | 16 |
